From patent publication US20110124607A1, “COMPOSITION FOR REGULATION CELLULAR SENESCENCE COMPRISING LYSOPHOSPHATIDIC ACID AND INHIBITOR OF ADENYLYL CYCLASE AS ACTIVE INGREDIENTS” (priority 2008, published 2011) come the findings set out here.

The test system of one test is p-Ser15-p53. Briefly: Immuno-blotting of p-Ser15-p53. The format is cell-based, human. To be noted: 10 mM AMPKI, 10 mM AICAR. The procedure:
(§1) (A) and (B): Young and senescent cells were serum-starved for 2 days, followed by treatment with 10 mM of AMPK inhibitor […]) or 10 mM of AMPK activator AICAR(B) for 4 days. Proteins were extracted from the treated cells and the levels of AMPKα and p-Thr172-AMPKα, total p53, p-Ser15-p53 and […] measured by immuno-blotting. (C) and (D): Young cells (C) and senescent cells (D) were treated with 10 mM AMPKI or 10 mM AICAR and cultured for 4 days, followed by measurement of cell proliferation by cell counting. At this time, the experiment was repeated three times (p<0.001). (A) and (B) are photographs illustrating the results of immuno-blotting. Precisely, sub-cultured young cells (PD 18: A) and senescent cells (PD 64: B) were treated with 30 μM of LPA […] and ACI singly or together, followed by further culture for 1, 2, and 4 days. Proteins were extracted from the cultured cells and the levels of AMPKα, […] β-actin were quantified by immuno-blotting. (A) and (B) are photographs illustrating the results of immuno-blotting. Precisely, senescent cells (PD 64) were pre-treated with 10 mM of PKA inhibitor Rp-cAMP for one hour, followed by treatment with LPA(A) or ACI(B). After culturing the cells for 1, 2, and 4 days, proteins were extracted from the cultured cells and the levels of AMPKα, […] β-actin were quantified by immuno-blotting using 45 μg of the protein. To analyse protein expression, human fibroblasts were lysed in cold lysis buffer (25 mM Hepes, pH 8.0, 150 mM NaCl, 1 mM EDTA, 1 mM Na3VO4, 1 mM NaF, 1% Triton X-100 and protease inhibitors), followed by centrifugation at 4° C. at 9,000 rpm for 10 minutes to obtain supernatant. Protein in the extract was quantified […]. SDS-PAGE electrophoresis was performed with equal amount of the protein (45 μg) to separate. The separated protein was transferred onto NC membrane from the electrophoresis gel. Non-specific protein binding was blocked by blocking the blot (transferred NC membrane) using TTBS […] containing 5% skim milk for one hour. Then, antigen-antibody reaction was induced with diluted primary antibody at 4° C. for overnight. The blot was washed with TTBS, followed by reaction with horseradish peroxidase conjugated anti-IgGs diluted in TTBS containing 5% skim milk (1:5000) at room temperature for one hour. The blot was washed again with TTBS to eliminate non-specific binding of antigen-antibody. Photographs were developed/printed on X-ray film (Kodak) using ECL kit (Pierce) containing peroxidase substrate to identify each protein.

The next test relates to p-Thr172-AMPKα. The test is described as follows: Immuno-blotting of p-Thr172-AMPKα. The format is cell-based, human. To be noted: 30 μM LPA, 300 μM ACI, 10 mM AMPKI, 10 mM AICAR, up to day 4. As for the experimental part: as §1
For test [1], the system named is senescent cells (human fibroblasts). Briefly: Cell proliferation by counting live cells (trypan blue), senescent cells. Format: cell-based. Conditions: serum-starved 2 days, counted day 1, 2, 4, 30 μM LPA, 300 μM ACI, 10 mM AMPKI, 10 mM AICAR. As for the experimental part:
(§2) Human fibroblasts were prepared by primary culture of foreskin of a newborn baby (Boyce and Ham, 1983). The primary culture was performed in DMEM supplemented with 10% FBS and 1% antibiotics. The protein contents of young cells from the early stage of sub-culture, with a population doubling (PD) of less than 25, were compared to those of at least PD 65-70 senescent cells. […] In senescent cells, the activity of beta-galactosidase was increased and cell proliferation was reduced (Yeo et al., 2000).
(§3) Prior to LPA and ACI treatment, cells were grown for 1-2 days to 60-70% sub-confluence in DMEM-containing culture medium, and then serum-starved to quiescence (that is Go/G1 arrest) by incubation in a serum-free medium containing 0.1% bovine serum albumin (BSA) for 2 days. Young and senescent cells were treated with LPA, ACI, LPA+ACI, AMPKI and AICAR, respectively. Live cells were measured after staining the cells with trypan blue on day 1, day 2 and day 4 to confirm cell proliferation.
(§4) Cell proliferation and cAMP level were increased by LPA in senescent cells (Yeo et al., 2002). The AC inhibitor (ACI) was added to reduce cAMP which had been increased by LPA. And then, cell proliferation was investigated. Cells were cultured in serum-free medium for 2 days to arrest them in G0/G1 phase. Then, the cells were treated with LPA, ACI or LPA+ACI. Total cell number was measured on day 1, day 2 and day 4, or the cells entered into S phase were counted to evaluate cell proliferation. When young cells were treated with 300 μM of ACI, cell proliferation was reduced, compared with control (FIG. 1A). In the meantime, when senescent cells were treated with 300 μM of ACI, cell proliferation was increased, compared with control (FIG. 1B).

A further test concerns p21waf1/cip1. Briefly: Immuno-blotting of p21waf1/cip1. Conditions: 10 mM AMPKI, 10 mM AICAR. The format is cell-based, human. The procedure: as §1
Test [2] relates to young cells (human fibroblasts). Briefly: Cell proliferation by counting live cells (trypan blue), young cells. The format is cell-based. Conditions: serum-starved 2 days, counted day 1, 2, 4, 30 μM LPA, 300 μM ACI, 10 mM AMPKI, 10 mM AICAR. As for the experimental part: as §2, §3, §4
[3] abbreviates: senescent cells, 30 μM LPA, 300 μM ACI.

Take `NC(=O)c1ncn([C@@H]2O[C@H](CO)[C@@H](O)[C@H]2O)c1N` [AICAR]: the p-Ser15-p53 expression result is listed as “increased” in the test on p-Ser15-p53 (setting [3]) and “increased” with p-Ser15-p53 (young cells, 4 days). Also, the Thr172-AMPKα phosphorylation result in the test on p-Thr172-AMPKα (senescent cells) and in the test with p-Thr172-AMPKα (young cells) was “increased” each time. The “cell proliferation (cell number) compared with control” value in test [1] and in test [2] was “suppressed” each time. The “p21 expression (immuno-blotting)” value is “increased” in the test on p21waf1/cip1 (setting [3]) and “increased” with p21waf1/cip1 (young cells, 4 days).
